Counter-ions that a name gives are not always drawn. Like-named read-outs stand apart in the source and are kept apart here.
System: uptake systems for 5HT in the brain
Experiment: in vivo inhibition of p-chloroamphetamine-induced depletion of brain 5HT
Design: species or system Charles River CD rats
Conditions: Rattus norvegicus, read-out: percentage inhibition of depletion (Ib)
Procedure: Once inside the neuron the depletor agent displaces the amine transmitter from its storage sites into the cytoplasm of the cell where it is metabolised by monoamine oxidase. […] The levels of the amine transmitter are preserved by pretreatment of the uptake sites with an uptake inhibitor. […] After 30 minutes a solution of p-chloroamphetamine in. distilled water was injected intraperitoneally at a dose of 5 mg/kg. After a further four hours the animals were sacrificed and the 5HT level in the brain determined fluorometrically.
The 5HT level in the brain was also determined in Control animals which received only vehicle solutions and for animals which received vehicle orally instead of the test compound followed by intraperitoneal injections of the depleting agent. These latter animals are referred to herein as depleted controls. The percentage inhibition. of depletion (Ib) was calculated using the formula

[1] = rats, 30 mg/kg orally, p-chloroamphetamine 5 mg/kg i.p. after 30 minutes, brain 5HT level after a further four hours

| Structure (SMILES) | inhibition at 30 mg/kg [%] | inhibition at 30 mg/kg [1] [%] |
| --- | --- | --- |
| CN(C)CCCN1c2ccccc2CCc2ccc(Cl)cc21 [Clomipramine] | 8 |  |
| CN(C)CC/C=C1\c2ccccc2CSc2ccccc21 [Dothiepin] |  | 9 |
| CN(C)CCCN1c2ccccc2CCc2ccccc21 [Imipramine] | 18 |  |
| CN(C)CCC=C1c2ccccc2CSc2ccc(C#N)cc21 [Product of Example 1, 11-(3-dimethylaminopropylidene)-6,11-dihydrodibenzo(b,e)thiepin-2-carbonitrile hydrobromide] |  | 82 |
| CN(C)CCC=C1c2cc(C#N)ccc2CSc2ccccc21 [Product of Example A, 11-(3-Dimethyl-aminopropylidene)6,1i-dihydrodibenzo[b,e]thiepin-9-carbonitrile hydrobromide] |  | 0 |

— patent publication EP0101234A1, “Therapeutic agent” (The Boots Company PLC, priority 1982, dated 1984)
